Test results as given in publication PMC6271891, “Exploration of Piperidinols as Potential Antitubercular Agents” (Molecules, 2014).
Values after ≈ are worked out from the molar mass of the structure shown. Values joined by “and” are separate entries in the source; they are usually repeats but may differ in a detail not shown here. Equal entries are not always repeated. Where two headings read alike, the source gives them in different places.

What was measured:
[1] = target: T1, MMNAT (Mycobacterium marinum, UniProt B2HIZ6); assay: Time-dependent (irreversible) inactivation of MMNAT by the piperidinols; format: biochemical; details: for kobs: 24 °C, mean ± S.D. of triplicate; for t1/2, apparent inactivation half-life: t1/2 = 0.693/kobs
Description: (§1) An assay for measuring the formation of CoA [23] was modified and used to determine the activity of the enzyme in the presence of potential inhibitors exactly as described previously. Irreversible inhibition, progressive with time was measured for the piperidinol inhibitors by the protocol described in [13] and the values of the apparent first order rate constant (kobs) were determined using the Kitz and Wilson model. Adduct formation was determined as previously described by mass spectroscopy analysis.
Figure S1. The time-dependent inhibition of the MMNAT by the piperidinols (A) compounds 1, 3, 4, 6 at 11.9 μM concentration (B) 5, 7 at 5.9 μM concentration and (C) 8, […]
Semi-logarithmic plots showing the time-dependent inactivation of MMNAT by (A) compounds 1, 3, 4, 6 at 11.9 μM concentration (B) 5, 7 at 5.9 μM concentration and (C) 8, 9 (11.9 μM), 10 (23.8 μM) and 11 (5.9 μM). The enzyme activity was measured using the protocol described in [1]. The results are presented as the mean ± S.D. of triplicate measurements. The error bars are within the symbols.
The residual activity is shown as a percentage of a control. The data were fitted against the incubation time using the Semilog line (X is linear, Y is Log) module of GraphPad Prism 5.0. The slope of each line is equivalent to (−kobs/2.303) at each inhibitor concentration. […]

[2] = tested on: M. bovis BCG; assay: microbe, parasite or virus in culture; format: cell-based; details: Mycobacterium tuberculosis variant bovis BCG, 336 h, read-out: MIC M. bovis BCG
[3] = tested on: M. tuberculosis strain H37Rv; assay: Mycobacterial growth inhibition, spot culture on solid medium, M. tuberculosis H37Rv; format: cell-based; details: Mycobacterium tuberculosis, 336 h, read-out: MIC M. tuberculosis
[4] = tested on: mycobacteria; parameters: method as in PMID 23285185; details: cited from earlier work
[5] = target: T1, MMNAT; assay: NAT inhibition assay (CoA formation), MMNAT; format: biochemical; details: for inhibition at 50 µM: read-out: MMNAT % Inhibition
Description: (§2) The NAT enzymes from M. smegmatis, S. typhimurium, P. aeruginosa, M. marinum, M. tuberculosis, hamster NAT2 [45] and human NAT1 [46] were produced as recombinant proteins, purified as previously described and stored at −80 in 20 mM Tris-HCl pH 8 containing 1 mM dithiothreitol and 5% glycerol and thawed and used within 1–5 h.
as §1

[6] = tested on: RAW 264.7 cells; details: up to 50 μg/mL inhibitor concentration
[7] = target: T2, TBNAT (Mycobacterium tuberculosis, UniProt P9WJI5); assay: NAT inhibition assay (CoA formation), TBNAT; format: biochemical, M. tuberculosis; details: for inhibition at 50 µM: read-out: TBNAT % Inhibition; for IC50: inhibitor 0–250 μM
T2 construct: made in house
Description: as §2, §1

[8] = tested on: M. bovis BCG str. Pasteur (ATCC 35734); assay: microbe, parasite or virus in culture; format: cell-based; details: Mycobacterium tuberculosis variant bovis BCG, read-out: MIC against M. bovis BCG
[9] = strain H37Rv, solid medium 7H10-OADC, no growth after 2 weeks
[10] = 5ASA as substrate, mean ± S.D. of triplicate, read-out: MMNAT IC50 5ASA
[11] = 50 μM inhibitor, 150 μM HLZ and 120 μM Ac-CoA, mean ± S.D. of triplicate
[12] = 150 μM HLZ and 120 μM Ac-CoA, inhibitor 0–250 μM, mean ± S.D. of triplicate, read-out: MMNAT IC50 HLZ
[13] = 150 μM HLZ and 120 μM Ac-CoA, mean ± S.D. of triplicate

T2 sequence (P9WJI5 whole entry): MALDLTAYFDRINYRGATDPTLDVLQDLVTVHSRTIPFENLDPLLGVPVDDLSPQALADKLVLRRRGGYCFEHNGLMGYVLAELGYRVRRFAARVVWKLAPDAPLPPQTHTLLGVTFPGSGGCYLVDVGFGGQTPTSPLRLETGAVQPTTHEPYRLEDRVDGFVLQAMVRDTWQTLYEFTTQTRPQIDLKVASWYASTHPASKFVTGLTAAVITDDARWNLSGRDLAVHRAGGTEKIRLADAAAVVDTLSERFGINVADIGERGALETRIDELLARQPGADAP
T1 sequence (B2HIZ6 entry or part of it): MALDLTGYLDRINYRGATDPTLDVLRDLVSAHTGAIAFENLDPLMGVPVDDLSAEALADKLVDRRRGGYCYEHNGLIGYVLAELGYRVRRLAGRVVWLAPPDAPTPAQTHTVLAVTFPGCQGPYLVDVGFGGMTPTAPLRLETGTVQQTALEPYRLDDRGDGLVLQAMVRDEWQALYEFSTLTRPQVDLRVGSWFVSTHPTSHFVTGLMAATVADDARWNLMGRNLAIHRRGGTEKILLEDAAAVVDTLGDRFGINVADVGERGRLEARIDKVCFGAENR

For `CN1CCC(O)(c2ccccc2)C(C(=O)c2ccccc2)C1` (stereo not shown) [Compound 1], the kobs ([1]; inhibitor 11.9 μM) was 9 ± 2 10^−3 min^−1, the “t1/2, apparent inactivation half-life” value ([1]; inhibitor 11.9 μM) was 81.5 min and the MIC [2] was 6.3 to 12.5 µg/mL (≈ 21.3 to 42.3 µM). For the same compound, the MIC [3, 9] was 1 to 10 µg/mL (≈ 3.39 to 33.9 µM), the “MIC (antimycobacterial)” value [4] was < 5 µg/mL and the IC50 [5, 10] was 6 ± 1 µM. For the same compound, the “Cytotoxic effect on RAW 264.7 cells” value [6] was “no cytotoxicity was observed”.

For `CN1CCC(O)(c2ccc(Cl)cc2)C(C(=O)c2ccc(Cl)cc2)C1` (stereo not shown) [Compound 2], the kobs ([1]; inhibitor 11.9 μM) was 110 ± 2 10^−3 min^−1, the “t1/2, apparent inactivation half-life” value ([1]; inhibitor 11.9 μM) was 6.3 min and the MIC [2] was 6.3 to 12.5 µg/mL (≈ 17.3 to 34.3 µM). For the same compound, the inhibition at 50 µM [5, 11] was 103 ± 2%, the IC50 [5, 12] was 0.16 ± 0.01 µM and the IC50 [5, 10] was 1.4 ± 0.6 µM. For the same compound, the inhibition at 50 µM [7, 11] was 98 ± 1% and the IC50 [7, 13] was 1.6 ± 0.1 µM.

For `CN1CCC(O)(c2ccc(Br)cc2)C(C(=O)c2ccc(Br)cc2)C1` (stereo not shown) [Compound 3], the kobs ([1]; inhibitor 11.9 μM) was 74 ± 7 10^−3 min^−1, the “t1/2, apparent inactivation half-life” value ([1]; inhibitor 11.9 μM) was 9.4 min and the MIC [2] was 6.3 to 12.5 µg/mL (≈ 13.9 to 27.6 µM). For the same compound, the MIC [3, 9] was 5 to 10 µg/mL (≈ 11 to 22.1 µM), the inhibition at 50 µM [5, 11] was 99 ± 1% and the IC50 [5, 12] was 0.08 ± 0.01 µM. It also gave an IC50 [5, 10] of 1.3 ± 0.4 µM, an inhibition at 50 µM [7, 11] of 98 ± 3% and an IC50 [7, 13] of 2.9 ± 0.4 µM.

For `CCN1CCC(O)(c2ccccc2)C(C(=O)c2ccccc2)C1` (stereo not shown) [Compound 4], the kobs ([1]; inhibitor 11.9 μM) was 15 ± 1 10^−3 min^−1, the “t1/2, apparent inactivation half-life” value ([1]; inhibitor 11.9 μM) was 45.6 min and the MIC [2] was 6.3 to 12.5 µg/mL (≈ 20.4 to 40.4 µM). For the same compound, the MIC [3, 9] was 5 to 10 µg/mL (≈ 16.2 to 32.3 µM), the inhibition at 50 µM [5, 11] was 126 ± 5% and the IC50 [5, 12] was 1.9 µM. It also gave an IC50 [5, 10] of 8 ± 1 µM, an inhibition at 50 µM [7, 11] of 72 ± 4% and an IC50 [7, 13] of 7.3 ± 0.3 µM.

For `CCN1CCC(O)(c2ccc(F)cc2)C(C(=O)c2ccc(F)cc2)C1` (stereo not shown) [Compound 5], the kobs ([1]; inhibitor 5.9 μM) was 638 ± 120 10^−3 min^−1, the “t1/2, apparent inactivation half-life” value ([1]; inhibitor 5.9 μM) was 1.1 min and the MIC [2] was 6.3 to 12.5 µg/mL (≈ 18.2 to 36.2 µM). For the same compound, the MIC [3, 9] was 5 to 10 µg/mL (≈ 14.5 to 29 µM), the inhibition at 50 µM [5, 11] was 102 ± 3% and the IC50 [5, 12] was 0.5 µM. It also gave an IC50 [5, 10] of 1.3 ± 0.5 µM, an inhibition at 50 µM [7, 11] of 108 ± 1% and an IC50 [7, 13] of 4.4 µM.

In the case of `CCCCN1CCC(O)(c2ccccc2)C(C(=O)c2ccccc2)C1` (stereo not shown) [Compound 6], the kobs ([1]; inhibitor 11.9 μM) is reported as 104 ± 8 10^−3 min^−1, the “t1/2, apparent inactivation half-life” value ([1]; inhibitor 11.9 μM) is reported as 6.6 min and the MIC [2] is reported as 6.3 to 12.5 µg/mL (≈ 18.7 to 37 µM). For the same compound, the MIC [3, 9] was 1 to 5 µg/mL (≈ 2.96 to 14.8 µM), the inhibition at 50 µM [5, 11] was 102 ± 3% and the IC50 [5, 12] was 2.6 ± 1 µM. For the same compound, the IC50 [5, 10] was 5 ± 0.4 µM, the inhibition at 50 µM [7, 11] was 100 ± 3% and the IC50 [7, 13] was 6.9 ± 0.4 µM.

For `O=C(c1ccccc1)C1CN(C2CCCCC2)CCC1(O)c1ccccc1` (stereo not shown) [Compound 7], the kobs ([1]; inhibitor 5.9 μM) was 573 ± 25 10^−3 min^−1, the “t1/2, apparent inactivation half-life” value ([1]; inhibitor 5.9 μM) was 1.2 min and the MIC [2] was 6.3 to 12.5 µg/mL (≈ 17.3 to 34.4 µM). The MIC ([3]; H37RV) was 1 to 5 µg/mL (≈ 2.75 to 13.8 µM) and the IC50 [5, 10] was 1.7 ± 0.2 µM.

In the case of `O=C(c1ccccc1)C1CN(Cc2ccccc2)CCC1(O)c1ccccc1` (stereo not shown) [Compound 8], the kobs ([1]; inhibitor 11.9 μM) is reported as 10 ± 1 10^−3 min^−1, the “t1/2, apparent inactivation half-life” value ([1]; inhibitor 11.9 μM) is reported as 71.4 min and the MIC [2] is reported as 6.3 to 12.5 µg/mL (≈ 17 to 33.6 µM). For the same compound, the MIC [3, 9] was 0 to 1 µg/mL, the inhibition at 50 µM [5, 11] was 101 ± 1% and the IC50 [5, 12] was 4.1 ± 0.4 µM. It also gave an inhibition at 50 µM [7, 11] of 58 ± 2%.

With `O=C(c1ccccc1)C1CN(C2CCCO2)CCC1(O)c1ccccc1` (stereo not shown) [Compound 9] the kobs ([1]; inhibitor 11.9 μM) was 163 ± 39 10^−3 min^−1, the “t1/2, apparent inactivation half-life” value ([1]; inhibitor 11.9 μM) was 4.2 min and the MIC [3, 9] was 0 to 1 µg/mL. The inhibition at 50 µM [5, 11] was 100.8 ± 0.5%, the IC50 [5, 12] was 2.5 ± 0.3 µM and the IC50 [5, 10] was 9 ± 0.9 µM. It also gave an inhibition at 50 µM [7, 11] of 51 ± 3%.

For `O=C(c1ccccc1)C1CN(C2CCS(=O)(=O)C2)CCC1(O)c1ccccc1` (stereo not shown) [Compound 10], the kobs ([1]; inhibitor 23.8 μM) was 19 ± 1 10^−3 min^−1, the “t1/2, apparent inactivation half-life” value ([1]; inhibitor 23.8 μM) was 37.1 min and the MIC [2] was 3.1 to 6.3 µg/mL (≈ 7.76 to 15.8 µM). For the same compound, the inhibition at 50 µM [5, 11] was 99 ± 0.7%, the IC50 [5, 12] was 13 ± 1 µM and the IC50 [5, 10] was > 30 µM. The inhibition at 50 µM [7, 11] was 47 ± 2%.

For `CC1(C)CC(N2CCC(O)(c3ccccc3)C(C(=O)c3ccccc3)C2)CC(C)(C)N1` (stereo not shown) [Compound 11], the kobs ([1]; inhibitor 5.9 μM) was 34 ± 1 10^−3 min^−1, the “t1/2, apparent inactivation half-life” value ([1]; inhibitor 5.9 μM) was 20.2 min and the MIC [2] was 6.3 to 12.5 µg/mL (≈ 15 to 29.7 µM). The MIC [3, 9] was 1 to 5 µg/mL (≈ 2.38 to 11.9 µM), the IC50 [5, 10] was 1.1 ± 0.3 µM and the “Cytotoxic effect on RAW 264.7 cells” value [6] was “no cytotoxicity was observed”.

With `OC(CCN1CCCCC1)c1ccc2c(c1)OCO2` (stereo not shown) [Compound 15] the MIC [8] was 125 µM to 250 µM and 33 µg/mL to 66 µg/mL, the IC50 [5, 12] was 1 ± 0.1 µM and the inhibition at 50 µM [5] was 103 ± 3%. For the same compound, the IC50 [7, 13] was 20 ± 3 µM and the inhibition at 50 µM [7] was 86 ± 2%.

Work on `C=CCC(O)(CCN1CCOCC1)c1ccc(F)cc1` (stereo not shown) [Compound 16] yielded an IC50 [5, 12] of 6.4 ± 0.6 µM, an inhibition at 50 µM [5] of 99 ± 1% and an inhibition at 50 µM [7] of -14 ± 3%.
